From US20220064146A1, “KINASE INHIBITOR COMPOUNDS AND COMPOSITIONS AND METHODS OF USE” (ICAHN SCHOOL OF MEDICINE AT MOUNT SINAI, priority 2018, published 2022) come the findings set out here.

By Kd is commonly meant the concentration at which binding is half-saturated. Higher therefore signals a looser complex. The term IC50 denotes the concentration at which inhibition is half-maximal. A lower IC50 goes with inhibition by little substance.

In the first test the target is DYRK1A (Homo sapiens, UniProt Q13627). The test can be described thus: DYRK1A binding assay (DiscoverX KINOMEscan). Particulars: eleven serial three fold dilutions, highest concentration 60 μM. On the procedure:
Compounds were tested for DYRK1A binding activity at the commercial kinase profiling service DiscoverX. DiscoverX uses proprietary KINOMEscan® Assay (Fabian et al., “A Small Molecule-kinase Interaction Map for Clinical Kinase Inhibitors,” Nat. Biotechnol. 23(3):329-336 (2005), which is hereby incorporated by reference in its entirety). Compounds were screened for DYRK1A activity at a single concentration of 3 μM in duplicates. Similarly, the dissociation constant Kd of the hit compounds from the initial screening was determined at DiscoverX using their proprietary KINOMEscan® Assay. Kd values are determined using eleven serial three fold dilutions with the highest concentration of 60 μM.
With `O=c1[nH]c2ccc(-c3cnc(NCc4cccnc4)nc3)cc2[nH]1` [Compound 30b, 5-(2-((Pyridin-3-ylmethyl)amino)pyrimidin-5-yl)-1H-benzo[d]imidazol-2(3H)-one], the Kd worked out at 190 nM.

In the case of `O=c1[nH]c2ccc(-c3cnc(NCc4ccc5ccccc5c4)nc3)cc2[nH]1` [Compound 30e, 5-(2-((Naphthalen-2-ylmethyl)amino)pyrimidin-5-yl)-1H-benzo[d]imidazol-2(3H)-one], the Kd was 7100 nM. This Kd lies about 37-fold higher than the previous one.

Compound `O=c1[nH]c2ccc(-c3cnc(NCc4ccc(Cl)cc4)nc3)cc2[nH]1` [Compound 29e, 5-(2-((4-Chlorobenzyl)amino)pyrimidin-5-yl)-1H-benzo[d]imidazol-2(3H)-one] displayed a Kd of 180 nM.

With `O=c1[nH]c2ccc(-c3cnc(NCc4ccc(F)cc4)cn3)cc2[nH]1` [Compound 18d, 5-(5-((4-Fluorobenzyl)amino)pyrazin-2-yl)-1H-benzo[d]imidazol-2 (3H)-one], binding was put at a Kd of 260 nM. The Kd values of the last two compounds are within 1.5-fold of each other.

As to `O=c1[nH]c2ccc(-c3cnc(NCCc4ccccc4)nc3)cc2[nH]1` [Compound 29k, 5-(2-(Phenethylamino)pyrimidin-5-yl)-1H-benzo[d]imidazol-2(3H)-one], the Kd came out at 200 nM.

Turning to `O=c1[nH]c2ccc(-c3cnc(NCc4ccncc4)nc3)cc2[nH]1` [Compound 30c, 5-(2-((Pyridin-4-ylmethyl)amino)pyrimidin-5-yl)-1H-benzo[d]imidazol-2 (3H)-one], the Kd worked out at 130 nM.

`NC(=O)c1ccc(CNc2ncc(-c3ccc4[nH]c(=O)[nH]c4c3)cn2)cc1` [Compound 32b, 4-(((5-(2-Oxo-2,3-dihydro-1H-benzo[d]imidazo1-5-yl)pyrimidin-2-yl)amino)methyl)benzamide]: binding was characterised by a dissociation constant (Kd) of 46 nM. This Kd is about 2.8-fold lower than that of the compound before.

As for `N#Cc1cccc(CNc2ncc(-c3ccc4[nH]c(=O)[nH]c4c3)cn2)c1` [Compound 29f, 3-(((5-(2-Oxo-2,3-dihydro-1H-benzo[d]imidazol-5-yl)pyrimidin-2-yl)amino)methyl)benzonitrile], the Kd was determined as 49 nM.

Another test has as its target T1, DYRK1/DYRK1A (Homo sapiens, UniProt Q13627).
T1 construct: purchased Reaction Biology Corp. (assay service)
The test can be described thus: DYRK1/DYRK1A IC50 assay (Reaction Biology Corp.). It is filed as biochemical. Particulars: DYRK1/DYRK1A assay from Reaction Biology Corp.; NI: No inhibition.
`O=c1[nH]c2ccc(-c3cnc(NCc4ncc[nH]4)nc3)cc2[nH]1` [Compound 51c, 5-(2-(((1H-Imidazol-2-yl)methyl)amino)pyrimidin-5-yl)-1H-benzo[d]imidazol-2(3H)-one] registered an IC50 of 960 nM. This lies in the sub-micromolar range.

Take `O=c1[nH]c2ccc(-c3cnc(Nc4cccc(F)c4)nc3)cc2[nH]1` [Compound 48b, 5-(2-((3-Fluorophenyl)amino)pyrimidin-5-yl)-1H-benzo[d]imidazol-2(3H)-one]: the IC50 was 47.7 nM.

The compound `O=c1[nH]c2ccc(-c3cnc(Nc4ccccc4F)nc3)cc2[nH]1` [Compound 48a, 5-(2-((2-Fluorophenyl)amino)pyrimidin-5-yl)-1H-benzo[d]imidazol-2(3H)-one] showed an IC50 of 78 nM.

In turn, `O=c1[nH]c2ccc(-c3cnc(NCc4cccs4)nc3)cc2[nH]1` [Compound 51b, 5-(2-((Thiophen-2-ylmethyl)amino)pyrimidin-5-yl)-1H-benzo[d]imidazol-2(3H)-one] had an IC50 of 32.7 nM.

The compound `COCCOc1cccc(CNc2ncc(-c3ccc4[nH]c(=O)[nH]c4c3)cn2)c1` [Compound 62, 5-(2-((3-(2-Methoxyethoxy)benzyl)amino)pyrimidin-5-yl)-1H-benzo[d]imidazol-2(3H)-one] came in with an IC50 of 48.4 nM.

As for `O=c1[nH]c2ccc(-c3cnc(NCc4cc[nH]n4)nc3)cc2[nH]1` [Compound 51e, 5-(2-(((1H-Pyrazol-3-yl)methyl)amino)pyrimidin-5-yl)-1H-benzo[d]imidazol-2(3H)-one], the IC50 was 337 nM.

Turning to `CC(C)n1c(=O)[nH]c2ccc(-c3cnc(NCc4ccccc4)nc3)cc21` [Compound 57b, 6-(2-(Benzylamino)pyrimidin-5-yl)-1-isopropyl-1H-benzo[d]imidazol-2(3H)-one], the IC50 stood at 4280 nM.

`CCn1c(=O)[nH]c2ccc(-c3cnc(NCc4ccccc4)nc3)cc21` [Compound 57a, 6-(2-(Benzylamino)pyrimidin-5-yl)-1-ethyl-1H-benzo[d]imidazol-2(3H)-one] yielded an IC50 of 243 nM. This IC50 is about 18-fold lower than that of the compound before.

On to `O=c1[nH]c2ccc(-c3cnc(Nc4cccc(Cl)c4)nc3)cc2[nH]1` [Compound 48e, 5-(2-((3-Chlorophenyl)amino)pyrimidin-5-yl)-1H-benzo[d]imidazol-2 (3H)-one], for which the IC50 is 54.9 nM.

Compound `C[C@H](Nc1ncc(-c2ccc3[nH]c(=O)[nH]c3c2)cn1)c1ccccc1` [Compound 60b, (S)-5-(2-((1-Phenylethyl)amino)pyrimidin-5-yl)-1H-benzo[d]imidazol-2(3H)-one] displayed an IC50 of 177 nM.

The compound `O=c1[nH]c2ccc(-c3cncc(NCc4ccccc4)n3)cc2[nH]1` [Compound 18m, 5-(6-(Benzylamino)pyrazin-2-yl)-1H-benzo[d]imidazol-2(3H)-one] returned an IC50 of 1.13 nM.

`O=c1[nH]c2ccc(-c3cnc(NCCCc4ccccc4)nc3)cc2[nH]1` [Compound 29l, 5-(2-((3-Phenylpropyl)amino)pyrimidin-5-yl)-1H-benzo[d]imidazol-2(3H)-one] yielded an IC50 of 34 nM.

For `O=c1[nH]c2ccc(-c3cnc(NCc4ccco4)nc3)cc2[nH]1` [Compound 51a, 5-(2-((Furan-2-ylmethyl)amino)pyrimidin-5-yl)-1H-benzo[d]imidazol-2(3H)-one], the IC50 amounted to 73.2 nM.

In turn, `O=c1[nH]c2ccc(-c3cnc(NCc4c[nH]cn4)nc3)cc2[nH]1` [Compound 51d, 5-(2-(((1H-Imidazol-4-yl)methyl)amino)pyrimidin-5-yl)-1H-benzo[d]imidazol-2(3H)-one] gave an IC50 of 326 nM.

On to `O=c1[nH]c2ccc(-c3cnc(NCc4ccccc4)nc3)cc2n1C1CC1` [Compound 57c, 6-(2-(Benzylamino)pyrimidin-5-yl)-1-cyclopropyl-1H-benzo[d]imidazol-2(3H)-one], for which it took 714 nM to reach half-maximal inhibition (IC50).

In turn, `C[C@@H](Nc1ncc(-c2ccc3[nH]c(=O)[nH]c3c2)cn1)c1ccccc1` [Compound 60a, (R)-5-(2-((1-Phenylethyl)amino)pyrimidin-5-yl)-1H-benzo[d]imidazol-2(3H)-one] gave an IC50 of 499 nM.

`COc1ccccc1Nc1ncc(-c2ccc3[nH]c(=O)[nH]c3c2)cn1` [Compound 48g, 5-(2-((2-Methoxyphenyl)amino)pyrimidin-5-yl)-1H-benzo[d]imidazol-2(3H)-one] had an IC50 of 497 nM.

`O=c1[nH]c2ccc(-c3cnc(Nc4ccc(F)cc4)nc3)cc2[nH]1` [Compound 48c, 5-(2-((4-Fluorophenyl)amino)pyrimidin-5-yl)-1H-benzo[d]imidazol-2(3H)-one] displayed an IC50 of 58 nM. Compared with the last compound, the IC50 is about 8.6-fold lower.

Regarding `O=c1[nH]c2ccc(-c3cnc(Nc4ccc(Cl)cc4)nc3)cc2[nH]1` [Compound 48f, 5-(2-((4-Chlorophenyl)amino)pyrimidin-5yl)-1H-benzo[d]imidazol-2 (3H)-one], the half-inhibitory concentration (IC50) was 90.6 nM.

Compound `COc1cccc(Nc2ncc(-c3ccc4[nH]c(=O)[nH]c4c3)cn2)c1` [Compound 48h, 5-(2-((3-Methoxyphenyl)amino)pyrimidin-5-yl)-1H-benzo[d]imidazol-2(3H)-one] gave an IC50 of 23.5 nM.

`O=c1[nH]c2ccc(-c3cnc(NCc4ncco4)nc3)cc2[nH]1` [Compound 51f, 5-(2-((Oxazol-2-ylmethyl)amino)pyrimidin-5-yl)-1H-benzo[d]imidazol-2(3H)-one]: the IC50 came to 427 nM.

For the compound `O=c1[nH]c2ccc(-c3cnc(Nc4ccccc4Cl)nc3)cc2[nH]1` [Compound 48d, 5-(2-((2-Chlorophenyl)amino)pyrimidin-5-yl)-1H-benzo[d]imidazol-2 (3H)-one], the IC50 worked out at 59 nM. This IC50 lies about 7.2-fold lower than the previous one.

Consider `COc1ccc(Nc2ncc(-c3ccc4[nH]c(=O)[nH]c4c3)cn2)cc1` [Compound 48i, 5-(2-((4-Methoxyphenyl)amino)pyrimidin-5-yl)-1H-benzo[d]imidazol-2(3H)-one], for which the IC50 was determined as 30.1 nM.
